The values below come from patent US8513380B2, “Peptides for binding fibrinogen and fibrin” (Georgia Tech Research Corporation, priority 2009, dated 2013).

Where two headings read alike, the source gives them in different places. Where a SMILES comes first, the peptide text is derived from it.

In test [1] the target is T1, fibrinogen fragment D (Homo sapiens, UniProt P02675+P02679).
T1 construct: Fibrinogen fragment D, comprising the C-terminal polymerization pockets of fibrinogen (i.e. D-domain) without the N-terminal knobs; purchased Enzyme Research Laboratories FIB3
T1 sequence (P02679 89-432 limits assumed): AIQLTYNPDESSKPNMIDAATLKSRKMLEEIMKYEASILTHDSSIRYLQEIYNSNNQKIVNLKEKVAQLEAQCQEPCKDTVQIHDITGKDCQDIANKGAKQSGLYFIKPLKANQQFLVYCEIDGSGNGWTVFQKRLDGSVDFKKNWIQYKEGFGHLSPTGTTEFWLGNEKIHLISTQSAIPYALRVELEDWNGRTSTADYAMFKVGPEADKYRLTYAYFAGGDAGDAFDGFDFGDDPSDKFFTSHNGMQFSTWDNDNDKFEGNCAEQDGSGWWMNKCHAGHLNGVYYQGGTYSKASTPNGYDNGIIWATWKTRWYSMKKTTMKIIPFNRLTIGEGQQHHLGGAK
T1 sequence (P02675 164-491 limits assumed): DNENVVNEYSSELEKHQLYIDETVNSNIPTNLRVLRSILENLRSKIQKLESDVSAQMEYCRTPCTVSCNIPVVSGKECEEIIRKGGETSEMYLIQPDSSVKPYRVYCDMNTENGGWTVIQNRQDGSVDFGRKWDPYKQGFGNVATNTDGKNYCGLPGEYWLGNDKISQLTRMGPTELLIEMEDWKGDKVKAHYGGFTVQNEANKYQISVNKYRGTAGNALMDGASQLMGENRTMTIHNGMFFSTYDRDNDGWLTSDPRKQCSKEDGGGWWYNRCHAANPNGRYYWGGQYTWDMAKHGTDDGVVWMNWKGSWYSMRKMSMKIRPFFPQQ
T1 sequence (P02671 124-216 partner limits assumed): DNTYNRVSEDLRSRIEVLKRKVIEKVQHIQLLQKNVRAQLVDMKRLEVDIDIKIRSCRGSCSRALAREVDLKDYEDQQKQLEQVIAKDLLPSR
Put plainly: SPR binding kinetics of knob 'A' peptides on immobilized fibrinogen fragment D. To be noted: for kon / koff: Langmuir 1:1 model; for kon: read-out: ka, association rate; for koff: read-out: kd, dissociation rate; for Kd: heterogeneous ligand model, KD = kd/ka. The procedure:
Human fibrinogen (Enzyme Research Laboratories, South Bend, Ind.) at 2 mg/mL was digested with 0.1 U/mL human plasmin (ERL) in HEPES+CaCl2 buffer (150 mM NaCl, 5 mM CaCl2, 25 mM HEPES; pH 7.4) overnight at room temperature. Fragment D was isolated as previously described, with slight modifications (Kostelansky M S, et al. Biochemistry. 2002; 41(40):12124-12132). Briefly, the plasmin-digested fibrinogen and GPRPAA (SEQ ID NO:10) beads were incubated for 30 min, with occasional agitation. The unbound proteins and protein fragments were removed with excessive washing with HEPES+CaCl2 buffer. Fragment D was eluted with 1M sodium bromide and 50 mM sodium acetate (pH 5.3). Eluted samples were pooled together and exchanged back into HEPES+CaCl2 buffer using a centrifugal filter (MWCO 10,000). Fragment D was verified by SDS-PAGE and stored at −80° C. until use.
The Biacore 2000 (Biacore Lifesciences, GE Healthcare, Pittsburgh, Pa.) was used investigate kinetic binding constants (ka and kd) of knob ‘A’ peptide variants for fibrinogen fragment D. Briefly, fragment D was covalently immobilized to gold-coated SPR sensor chips via self-assembled monolayer (SAM) surface chemistry in order to generate a non-fouling surface with a controlled density of reactive carboxylic acid groups. Mixed SAMs were generated on gold-coated chips as described previously (Petrie T A, et al. Biomaterials. 2006; 27(31):5459-5470) by incubating with a 1 mM mixture of tri(ethylene glycol)-terminated alkanethiols (HS-(CH2)11—(OCH2CH2)3—OH; EG3; ProChimia, Poland) and carboxylic acid-terminated alkanethiols (HS-(CH2)11—(OCH2CH2)6—OCH2COOH; EG6-COOH) for 4 hrs. Upon loading the sensor chip into the Biacore 2000, the EG6-COOH in all four flow cells was activated by flowing 200 mM 1-ethyl-3-(3-dimethylaminopropyl) carbodiimide (EDC; Sigma Aldrich, St. Louis, Mo.) and 50 mM N-hydroxysuccinimide (NHS; Sigma Aldrich) (5 μL/min for 10 min). Immediately following activation, fragment D was immobilized in three flow cells (5 μL/min for 10 min) to achieve 1800-2000 resonance units (RU; 1RU˜1 pg/mm^2). Unreacted NHS groups were quenched in all four flow cells (three sample cells and one reference cell) with 20 mM ethanolamine ([…] for 10 min). Upon stabilization of the baseline signal, kinetic binding experiments were run in duplicate with the peptide variants as the flow analytes. Five varying concentrations for each peptide (0.94 μM to 150 μM) were flowed at 25 μL/min for 4 min immediately followed by a 10 min dissociation phase. Between each run, the surface was regenerated with 1M sodium bromide and 50 mM sodium acetate (pH 6.0). SPR experiments were performed three times with varying peptide injection order to rule out binding trends associated with injection sequence. Peptide solutions were incubated with tris(2-carboxyethyl)phosphine (TCEP) immobilized on agarose beads (Thermo Fisher Scientific, Inc; Rockland, Ill.) to ensure reduction of any disulfide bonds between C-terminal cysteines.
SPR sensorgrams were analyzed with the aid of Scrubber 2 and ClampXP software (Center for Biomolecular Interactions Analysis, University of Utah) (Morton T A, et al. Methods Enzymol. 1998; 295:268-294; Morton T A, et al. Anal Biochem. 1995; 227(1):176-185; Myszka D G, et al. Trends Biochem Sci. 1998; 23(4):149-150). Prior to analysis, all sensorgrams were inspected for abnormalities (i.e. baseline drift, air spikes, or irregular deviations) and excluded. Reference cell responses were subtracted from corresponding active response curves. Double-referenced curves were acquired by further subtracting the reference cell blank buffer injections from each reference-subtracted response curve (Myszka D G. Mol. Recognit. 1999; 12(5):279-284). All double-referenced curves were normalized by the molecular weight of each peptide and multiplied by 1000 to account for minor variations in response due to molecular weight. The resulting curves were then analyzed and fitted to the kinetic models. […]

Test [2] addresses T2, fibrinogen (Homo sapiens, UniProt P02675+P02679).
T2 sequence (P02679 27-437 isoform P02679-2 limits assumed): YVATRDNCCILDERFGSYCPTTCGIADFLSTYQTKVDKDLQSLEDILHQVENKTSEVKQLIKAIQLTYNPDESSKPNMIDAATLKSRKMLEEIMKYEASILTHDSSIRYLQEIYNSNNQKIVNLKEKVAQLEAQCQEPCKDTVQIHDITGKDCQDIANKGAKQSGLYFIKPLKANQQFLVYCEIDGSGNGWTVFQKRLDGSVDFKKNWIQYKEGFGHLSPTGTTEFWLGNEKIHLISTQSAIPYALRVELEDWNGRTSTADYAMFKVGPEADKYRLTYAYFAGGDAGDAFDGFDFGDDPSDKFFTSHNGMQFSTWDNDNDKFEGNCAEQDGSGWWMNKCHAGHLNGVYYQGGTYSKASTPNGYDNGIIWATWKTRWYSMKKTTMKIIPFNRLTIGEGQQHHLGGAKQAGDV
T2 sequence (P02675 31-491): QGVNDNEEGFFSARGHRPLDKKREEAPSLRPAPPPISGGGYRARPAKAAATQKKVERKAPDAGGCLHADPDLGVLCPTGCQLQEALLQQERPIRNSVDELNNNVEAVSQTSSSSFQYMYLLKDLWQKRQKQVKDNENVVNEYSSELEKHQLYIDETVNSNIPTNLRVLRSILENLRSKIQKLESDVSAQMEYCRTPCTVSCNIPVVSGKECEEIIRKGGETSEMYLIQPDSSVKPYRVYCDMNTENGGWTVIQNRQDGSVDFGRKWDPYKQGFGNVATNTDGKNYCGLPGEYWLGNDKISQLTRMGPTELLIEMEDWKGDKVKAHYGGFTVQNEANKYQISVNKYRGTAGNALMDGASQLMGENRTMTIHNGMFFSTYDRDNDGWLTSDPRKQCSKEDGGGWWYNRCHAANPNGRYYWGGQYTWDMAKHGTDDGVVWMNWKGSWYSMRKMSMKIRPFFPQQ
T2 sequence (P02671 20-629 partner limits assumed): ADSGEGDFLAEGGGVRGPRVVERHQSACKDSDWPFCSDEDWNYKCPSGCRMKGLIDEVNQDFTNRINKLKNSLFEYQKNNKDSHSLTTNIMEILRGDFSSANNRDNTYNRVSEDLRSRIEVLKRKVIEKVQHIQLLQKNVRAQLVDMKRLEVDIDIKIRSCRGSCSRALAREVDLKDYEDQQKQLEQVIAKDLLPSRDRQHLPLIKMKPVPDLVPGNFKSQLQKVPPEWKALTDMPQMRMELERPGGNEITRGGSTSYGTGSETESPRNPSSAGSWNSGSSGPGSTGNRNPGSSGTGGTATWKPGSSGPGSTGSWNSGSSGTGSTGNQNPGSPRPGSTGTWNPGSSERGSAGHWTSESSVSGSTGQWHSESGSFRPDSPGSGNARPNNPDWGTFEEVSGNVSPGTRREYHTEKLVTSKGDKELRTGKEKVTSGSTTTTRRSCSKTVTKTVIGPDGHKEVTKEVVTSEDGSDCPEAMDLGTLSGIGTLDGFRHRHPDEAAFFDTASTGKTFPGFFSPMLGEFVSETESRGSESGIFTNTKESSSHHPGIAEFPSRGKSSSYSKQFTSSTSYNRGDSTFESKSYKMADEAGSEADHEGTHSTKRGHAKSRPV
Put plainly: ELISA specificity assay: soluble Gxxx tetrapeptides competing with immobilized GPRP-FnIII9-10-C. The class given is binding. Particulars: tetrapeptide in 10^2- to 10^4-fold molar excess; one-hour pre-incubation. The procedure: A modified ELISA technique was used to establish the affinity of fibrinogen for the various Gxxx-FnIII9-10-C (SEQ ID NO:20) proteins covalently immobilized on maleimide-activated plates via their C-terminal cysteines. Sulfhydryl-containing proteins/peptides were added to pre-blocked maleimide-activated 96-well plates (Pierce, Thermo Scientific, Rockford, Ill.) at 10 μg/mL in conjugation buffer (CB) comprising 150 mM NaCl, 100 mM phosphate, 10 mM EDTA, pH 7.2, with attachment occurring via maleimide-sulfhydryl (thioether) linkages. TCEP (1 mM) was added to maintain sulfhydryl groups in the reduced form. Following, unreacted maleimide groups were quenched with 20 μg/mL cysteine in CB. Human fibrinogen (25 μg/mL) was incubated with the substrates and unbound protein removed by washing. Bound fibrinogen was detected using HRP-conjugated goat anti-fibrinogen antibody (MP Biomedicals #55239) and 1-Step™ Ultra TMB-ELISA (Pierce). The TMB reaction was quenched with 1 M H2SO4 before measuring the Abs450 nm using the SPECTRAMAX® M2 (Molecular Devices, Sunnyvale, Calif.). All intervening wash steps were conducted using washing buffer (WB) comprising 150 mM NaCl, 100 mM phosphate, 0.05% Tween-20, pH 7.2; all binding steps were conducted using binding buffer (BB) comprising PBS+1% BSA. For basic affinity assays, the concentration of the fusion proteins was varied. For specificity assays, varying concentrations of Gxxx (SEQ ID NO:20) tetrapeptides (Genscript, Piscataway, N.J.) were added to the fibrinogen solution during incubation with the covalently immobilized proteins.
The tetrapeptides GPRV (SEQ ID NO:2) and GHRP (SEQ ID NO:3) are also known to bind fibrinogen via knob:pocket interactions, albeit with reduced affinities (Laudano A P, et al. Biochemistry 1980, 19(5):1013-1019).
For orientation: ELISA stands for enzyme-linked immunosorbent assay.

With `C[C@H](NC(=O)[C@H](C)NC(=O)[C@@H]1CCCN1C(=O)[C@H](CCCNC(=N)N)NC(=O)[C@@H]1CCCN1C(=O)CN)C(=O)N[C@@H](CS)C(=O)O` [GPRPAAC] (H-GPRPAAC-OH), in test [1], the kon was found to be 1140 ± 30 M⁻¹ s⁻¹ and the koff was 0.0117 ± 0.00017 s⁻¹. Besides, in test [1] (site 1, read-out: KD1), the Kd is 4.53 µM. Besides, the Kd in test [1] (site 2, read-out: KD2) was found to be 8.52 µM.

Take `C[C@H](NC(=O)[C@@H]1CCCN1C(=O)[C@H](Cc1ccccc1)NC(=O)[C@@H]1CCCN1C(=O)[C@H](CCCNC(=N)N)NC(=O)[C@@H]1CCCN1C(=O)CN)C(=O)N[C@@H](CS)C(=O)O` [GPRPFPAC] (H-GPRPFPAC-OH): the kon in test [1] came to 12500 ± 260 M⁻¹ s⁻¹. The koff in test [1] worked out at 0.00727 ± 8e-05 s⁻¹. Besides, the Kd in test [1] (site 1, read-out: KD1) is 3.73 µM; in test [1] (site 2, read-out: KD2), 1.08 µM.

On to `N=C(N)NCCC[C@H](NC(=O)[C@H](CCC(=O)O)NC(=O)[C@@H]1CCCN1C(=O)[C@@H]1CCCN1C(=O)[C@H](CCCNC(=N)N)NC(=O)[C@@H]1CCCN1C(=O)CN)C(=O)N[C@@H](CS)C(=O)O` [GPRPPERC] (H-GPRPPERC-OH), for which the kon in test [1] came to 1290 ± 30 M⁻¹ s⁻¹. Further, in test [1], the koff worked out at 0.00992 ± 0.00013 s⁻¹. Further, the Kd in test [1] (site 1, read-out: KD1) amounted to 18.2 µM; in test [1] (site 2, read-out: KD2), 2.93 µM.

In the case of `CC(C)[C@H](NC(=O)[C@H](CCCNC(=N)N)NC(=O)[C@@H]1CCCN1C(=O)CN)C(=O)N[C@H](C(=O)N[C@@H](C)C(=O)N[C@@H](C)C(=O)N[C@@H](CS)C(=O)O)C(C)C` [GPRVVAAC] (H-GPRVVAAC-OH), in test [1], the kon was determined as 90 ± 1 M⁻¹ s⁻¹ and the koff worked out at 0.01073 ± 4e-05 s⁻¹. In addition, in test [1] (site 1, read-out: KD1), the Kd came out at 48.5 µM. In addition, the Kd in test [1] (site 2, read-out: KD2) was 25 µM.

Turning to `CC(C)[C@H](NC(=O)[C@H](CCCNC(=N)N)NC(=O)[C@@H]1CCCN1C(=O)CN)C(=O)N[C@H](C(=O)N[C@@H](CCC(=O)O)C(=O)N[C@@H](CCCNC(=N)N)C(=O)N[C@@H](CS)C(=O)O)C(C)C` [GPRVVERC] (H-GPRVVERC-OH), in test [1], the kon is 280 ± 4 M⁻¹ s⁻¹ and the koff is 0.02343 ± 0.00023 s⁻¹. The Kd in test [1] (site 1, read-out: KD1) turned out to be 53.9 µM. Further, the Kd in test [1] (site 2, read-out: KD2) is 15.7 µM.

For GHRP (listed as Homo sapiens), the “competition with immobilized GPRP-FnIII9-10-C for binding to fibrinogen” value in test [2] is “not a significant competitor”.

In the case of GPRV (listed as Homo sapiens), in test [2], the “competition with immobilized GPRP-FnIII9-10-C for binding to fibrinogen” value is on record as “to a lesser extent as compared to GPRP”.

On to “GPSPAAC (listed as Homo sapiens) [reference compound]”, for which, in test [1], the “SPR binding response (in words)” value was “minimal binding response”.
